Results on one compound are retold here after PMC5218480 (PLoS ONE, 2017).

This assay deals with MV-4-11 cells. The experiment in a line: Gene expression microarray analysis (Affymetrix PrimeView) and GSEA. To be noted: ProbeSet 11719817_x_at; LIST B. Also noted: RFU PODN (11730768_x_at) / Fold change /veh PODN (11730768_x_at) / RFU LINC00158 (11744669_a_at) / Fold change /veh LINC00158 (11744669_a_at) / RFU DUSP10 (11751237_a_at) / Fold change /veh DUSP10 (11751237_a_at) / RFU ID3 (11757404_x_at) / Fold change /veh ID3 (11757404_x_at) / RFU PLEKHG5 (11737974_s_at) / Fold change /veh PLEKHG5 (11737974_s_at) / RFU LRRC4B (11730491_at) / Fold change /veh LRRC4B (11730491_at) / RFU GIMAP4 (11747438_a_at) / Fold change /veh GIMAP4 (11747438_a_at) / RFU KRT8 (11758183_x_at) / Fold change /veh KRT8 (11758183_x_at) / RFU CNN1 (11734310_a_at) / Fold change /veh CNN1 (11734310_a_at) / RFU VPS37D (11726825_at) / Fold change /veh VPS37D (11726825_at) / RFU C10orf10 (11716522_x_at) / Fold change /veh C10orf10 (11716522_x_at) / RFU KIR2DL2 /// KIR2DL4 /// KIR2DL5A /// KIR2DL5B /// KIR2DS1 /// KIR2DS2 /// KIR2DS3 /// KIR2DS4 /// KIR3DL3 /// KIR3DL3 /// KIR3DS1 (11738374_at) / Fold change /veh KIR2DL2 /// KIR2DL4 /// KIR2DL5A /// KIR2DL5B /// KIR2DS1 /// KIR2DS2 /// KIR2DS3 /// KIR2DS4 /// KIR3DL3 /// KIR3DL3 /// KIR3DS1 (11738374_at) / RFU C1QL1 (11718748_at) / Fold change /veh C1QL1 (11718748_at) / RFU TMPRSS4 (11747572_a_at) / Fold change /veh TMPRSS4 (11747572_a_at) / RFU HAMP (11756126_x_at) / Fold change /veh HAMP (11756126_x_at) / RFU RNFT2 (11725882_a_at) / Fold change /veh RNFT2 (11725882_a_at) / RFU NR4A2 (11747474_a_at) / Fold change /veh NR4A2 (11747474_a_at) / RFU ABCC12 (11746883_a_at) / Fold change /veh ABCC12 (11746883_a_at) / RFU TMEM136 (11760407_x_at) / Fold change /veh TMEM136 (11760407_x_at) / RFU CLDN22 /// WWC2 (11732394_at) / Fold change /veh CLDN22 /// WWC2 (11732394_at) / RFU HLA-DPB1 (11760878_x_at) / Fold change /veh HLA-DPB1 (11760878_x_at) / RFU SPINT1 (11716480_a_at) / Fold change /veh SPINT1 (11716480_a_at) / RFU GAP43 (11754022_s_at) / Fold change /veh GAP43 (11754022_s_at) / RFU A4GNT (11735810_at) / Fold change /veh A4GNT (11735810_at) / RFU PRB3 (11715151_x_at) / Fold change /veh PRB3 (11715151_x_at) / RFU TUBB4B (11761932_at) / Fold change /veh TUBB4B (11761932_at) / RFU CAPN14 (11732068_a_at) / Fold change /veh CAPN14 (11732068_a_at) / RFU TMCC2 (11721928_a_at) / Fold change /veh TMCC2 (11721928_a_at) / RFU IRGQ (11745062_a_at) / Fold change /veh IRGQ (11745062_a_at) / RFU FAM174B (11720279_a_at) / Fold change /veh FAM174B (11720279_a_at) / RFU TMPRSS4 (11748680_a_at) / Fold change /veh TMPRSS4 (11748680_a_at) / RFU FAM212B (11763350_a_at) / Fold change /veh FAM212B (11763350_a_at) / RFU PLEKHG5 (11743358_a_at) / Fold change /veh PLEKHG5 (11743358_a_at) / RFU ZSCAN30 (11745921_a_at) / Fold change /veh ZSCAN30 (11745921_a_at) / RFU CMKLR1 (11741424_a_at) / Fold change /veh CMKLR1 (11741424_a_at) / RFU LOC101060620 /// MAPK8IP1 (11723275_at) / Fold change /veh LOC101060620 /// MAPK8IP1 (11723275_at) / RFU SPTSSB (11747773_x_at) / Fold change /veh SPTSSB (11747773_x_at) / RFU PRSS12 (11739890_at) / Fold change /veh PRSS12 (11739890_at) / RFU BIN1 (11741810_x_at) / Fold change /veh BIN1 (11741810_x_at) / RFU WNT11 (11732464_a_at) / Fold change /veh WNT11 (11732464_a_at) / RFU C10orf10 (11716521_a_at) / Fold change /veh C10orf10 (11716521_a_at) / RFU C5orf56 (11738089_at) / Fold change /veh C5orf56 (11738089_at) / RFU CYB561 (11721691_x_at) / Fold change /veh CYB561 (11721691_x_at) / RFU ANKRD19P (11752326_a_at) / Fold change /veh ANKRD19P (11752326_a_at) / RFU OR2T12 /// OR2T33 /// OR2T8 (11738714_s_at) / Fold change /veh OR2T12 /// OR2T33 /// OR2T8 (11738714_s_at) / RFU VCAN (11748164_a_at) / Fold change /veh VCAN (11748164_a_at) / RFU JSRP1 (11732532_at) / Fold change /veh JSRP1 (11732532_at) / RFU KRTAP10-11 (11738290_x_at) / Fold change /veh KRTAP10-11 (11738290_x_at) / RFU MYO3A (11730013_a_at) / Fold change /veh MYO3A (11730013_a_at) / RFU EBF3 (11725865_a_at) / Fold change /veh EBF3 (11725865_a_at) / RFU CAMK2N1 (11719241_x_at) / Fold change /veh CAMK2N1 (11719241_x_at) / RFU C5orf56 (11738088_a_at) / Fold change /veh C5orf56 (11738088_a_at) / RFU OLFML3 (11715873_a_at) / Fold change /veh OLFML3 (11715873_a_at) / RFU LOC100653217 /// NTM (11731650_a_at) / Fold change /veh LOC100653217 /// NTM (11731650_a_at) / RFU MAPK11 (11762145_a_at) / Fold change /veh MAPK11 (11762145_a_at) / RFU FIZ1 (11724087_x_at) / Fold change /veh FIZ1 (11724087_x_at) / RFU OASL (11726364_x_at) / Fold change /veh OASL (11726364_x_at) / RFU SOX15 (11748057_x_at) / Fold change /veh SOX15 (11748057_x_at) / RFU CD79A (11719716_a_at) / Fold change /veh CD79A (11719716_a_at) / RFU HIST1H1D (11736915_at) / Fold change /veh HIST1H1D (11736915_at) / RFU CASKIN2 (11723855_a_at) / Fold change /veh CASKIN2 (11723855_a_at) / RFU LOC730098 (11760151_x_at) / Fold change /veh LOC730098 (11760151_x_at) / RFU OR4N2 (11742367_at) / Fold change /veh OR4N2 (11742367_at) / RFU PRRT2 (11749266_a_at) / Fold change /veh PRRT2 (11749266_a_at) / RFU SNX32 (11753110_a_at) / Fold change /veh SNX32 (11753110_a_at) / RFU CDHR5 (11726645_a_at) / Fold change /veh CDHR5 (11726645_a_at) / RFU RCAN1 (11760418_a_at) / Fold change /veh RCAN1 (11760418_a_at) / RFU FAM167A (11723789_a_at) / Fold change /veh FAM167A (11723789_a_at) / RFU FAM26E (11764081_at) / Fold change /veh FAM26E (11764081_at) / RFU ISYNA1 (11749810_s_at) / Fold change /veh ISYNA1 (11749810_s_at) / RFU ACY1 (11761880_at) / Fold change /veh ACY1 (11761880_at) / RFU 11764098_at / Fold change /veh 11764098_at / RFU SAMD14 (11745864_x_at) / Fold change /veh SAMD14 (11745864_x_at) / RFU NPB (11741838_a_at) / Fold change /veh NPB (11741838_a_at) / RFU TMPRSS6 (11731388_a_at) / Fold change /veh TMPRSS6 (11731388_a_at) / RFU KRTAP10-2 (11738614_at) / Fold change /veh KRTAP10-2 (11738614_at) / RFU ARHGAP8 /// PRR5-ARHGAP8 (11727945_x_at) / Fold change /veh ARHGAP8 /// PRR5-ARHGAP8 (11727945_x_at) / RFU KRTAP5-7 /// NADSYN1 (11734609_at) / Fold change /veh KRTAP5-7 /// NADSYN1 (11734609_at) / RFU RASL12 (11751679_a_at) / Fold change /veh RASL12 (11751679_a_at) / RFU CDKN2B (11736163_a_at) / Fold change /veh CDKN2B (11736163_a_at) / RFU PRF1 (11729649_at) / Fold change /veh PRF1 (11729649_at) / RFU, ZNF638 /// ZNF638-IT1 / Fold change vs veh, ZNF638 /// ZNF638-IT1 / RFU, PANK3 / Fold change vs veh, PANK3 / RFU, SH3YL1 / Fold change vs veh, SH3YL1 / RFU, ZEB2 / Fold change vs veh, ZEB2 / RFU, NRIP1 / Fold change vs veh, NRIP1 / RFU, PTTG1IP / Fold change vs veh, PTTG1IP / RFU, CAPN2 / Fold change vs veh, CAPN2 / RFU, MED14 / Fold change vs veh, MED14 / RFU, SNORA58 / Fold change vs veh, SNORA58 / RFU, C1orf63 / Fold change vs veh, C1orf63 / RFU, LRRFIP1 / Fold change vs veh, LRRFIP1 / RFU, NDUFAF7 / Fold change vs veh, NDUFAF7 / RFU, SLC12A2 / Fold change vs veh, SLC12A2 / RFU, IBTK / Fold change vs veh, IBTK / RFU, ESF1 / Fold change vs veh, ESF1 / Fold change vs veh, TMEM50B / RFU, TAOK1 / Fold change vs veh, TAOK1 / RFU, ACBD3 / Fold change vs veh, ACBD3 / RFU, TMA16 / Fold change vs veh, TMA16 / RFU, RWDD3 / Fold change vs veh, RWDD3 / RFU, BCAT1 / Fold change vs veh, BCAT1 / RFU, EDEM3 / Fold change vs veh, EDEM3 / RFU, TMEM33 / Fold change vs veh, TMEM33 / RFU, WDR75 / Fold change vs veh, WDR75 / RFU, AHCTF1 / Fold change vs veh, AHCTF1 / RFU, TFRC / Fold change vs veh, TFRC / RFU, ZDHHC17 / Fold change vs veh, ZDHHC17 / RFU, NOM1 / Fold change vs veh, NOM1 / RFU, ARL8B / Fold change vs veh, ARL8B / RFU, ZBTB11 / Fold change vs veh, ZBTB11 / RFU, TAMM41 / Fold change vs veh, TAMM41 / RFU, KIAA1704 /// LOC100996395 / Fold change vs veh, KIAA1704 /// LOC100996395 / RFU, ING1 / Fold change vs veh, ING1 / RFU, TRMT61B / Fold change vs veh, TRMT61B / RFU, FUBP3 / Fold change vs veh, FUBP3 / RFU, TP53 / Fold change vs veh, TP53 / RFU, TNKS2 / Fold change vs veh, TNKS2 / RFU, ZFP14 / Fold change vs veh, ZFP14 / RFU, ACTR2 / Fold change vs veh, ACTR2 / RFU, PPP3R1 / Fold change vs veh, PPP3R1 / RFU, PIK3R1 / Fold change vs veh, PIK3R1 / RFU, HNRNPA1 / Fold change vs veh, HNRNPA1 / RFU, RNF170 / Fold change vs veh, RNF170 / RFU, ZNF28 / Fold change vs veh, ZNF28 / RFU, RNGTT / Fold change vs veh, RNGTT / RFU, OGT / Fold change vs veh, OGT / RFU, BRD1 / Fold change vs veh, BRD1 / RFU, MARS / Fold change vs veh, MARS / RFU, ZNF655 / Fold change vs veh, ZNF655 / RFU, FAHD1 / Fold change vs veh, FAHD1 / RFU, BDP1 / Fold change vs veh, BDP1 / RFU, LRRCC1 / Fold change vs veh, LRRCC1 / RFU, ARID1A / Fold change vs veh, ARID1A / RFU, ZNF146 / Fold change vs veh, ZNF146 / RFU, ZNF330 / Fold change vs veh, ZNF330 / RFU, GPN3 / Fold change vs veh, GPN3 / RFU, C9orf123 / Fold change vs veh, C9orf123 / RFU, N4BP2L2 / Fold change vs veh, N4BP2L2 / RFU, ARFIP1 / Fold change vs veh, ARFIP1 / RFU, FAM179B / Fold change vs veh, FAM179B / RFU, BCL10 / Fold change vs veh, BCL10 / RFU, UHRF1BP1L / Fold change vs veh, UHRF1BP1L / RFU, BET1 / Fold change vs veh, BET1 / RFU, CNOT2 / Fold change vs veh, CNOT2 / RFU, ZNF268 / Fold change vs veh, ZNF268 / Fold change vs veh, ZNF507 / RFU, DGCR2 / Fold change vs veh, DGCR2 / RFU, WDSUB1 / Fold change vs veh, WDSUB1 / Fold change vs veh, HSP90B1 /// MIR3652 / RFU, ADSS / Fold change vs veh, ADSS / RFU, GK / Fold change vs veh, GK / RFU, ZNF148 / Fold change vs veh, ZNF148 / RFU, TAF9 / Fold change vs veh, TAF9 / RFU, SLC1A5 / Fold change vs veh, SLC1A5 / RFU, SLMO2 / Fold change vs veh, SLMO2 / RFU, ABCC4 / Fold change vs veh, ABCC4 / RFU, LOC101060439 /// RAP1B / Fold change vs veh, LOC101060439 /// RAP1B / RFU, RFX7 / Fold change vs veh, RFX7 / RFU, GTPBP10 / Fold change vs veh, GTPBP10 / RFU, CNEP1R1 / Fold change vs veh, CNEP1R1 / RFU, BIVM-ERCC5 /// ERCC5 / Fold change vs veh, BIVM-ERCC5 /// ERCC5 / RFU, ILF3 / Fold change vs veh, ILF3 / RFU 11762660_at / Fold change /veh 11762660_at / RFU VCAN (11757783_s_at) / Fold change /veh VCAN (11757783_s_at) / RFU DDX43 (11728927_at) / Fold change /veh DDX43 (11728927_at) / RFU KRT8 (11758188_x_at) / Fold change /veh KRT8 (11758188_x_at) / RFU NKD1 (11759106_at) / Fold change /veh NKD1 (11759106_at) / RFU SRD5A1 (11742802_a_at) / Fold change /veh SRD5A1 (11742802_a_at) / RFU TPSAB1 /// TPSB2 (11721975_s_at) / Fold change /veh TPSAB1 /// TPSB2 (11721975_s_at) / RFU GSTM3 (11746129_a_at) / Fold change /veh GSTM3 (11746129_a_at) / RFU IL23R (11737362_x_at) / Fold change /veh IL23R (11737362_x_at) / RFU TMEM51 (11727254_a_at) / Fold change /veh TMEM51 (11727254_a_at) / RFU PIWIL2 (11732686_x_at) / Fold change /veh PIWIL2 (11732686_x_at) / RFU ORM1 (11744905_x_at) / Fold change /veh ORM1 (11744905_x_at) / RFU CCDC152 (11743942_at) / Fold change /veh CCDC152 (11743942_at) / RFU ECM1 (11717891_a_at) / Fold change /veh ECM1 (11717891_a_at) / RFU IL23R (11748794_a_at) / Fold change /veh IL23R (11748794_a_at) / RFU TNFAIP8L3 (11732012_x_at) / Fold change /veh TNFAIP8L3 (11732012_x_at) / RFU MBOAT4 (11741988_at) / Fold change /veh MBOAT4 (11741988_at) / RFU 11764193_at / Fold change /veh 11764193_at / RFU TMEM53 (11763286_at) / Fold change /veh TMEM53 (11763286_at) / RFU MAGEB2 (11727129_at) / Fold change /veh MAGEB2 (11727129_at) / RFU TMEM200A (11744735_a_at) / Fold change /veh TMEM200A (11744735_a_at) / RFU CCDC152 (11751479_a_at) / Fold change /veh CCDC152 (11751479_a_at) / RFU FAM211A (11726209_a_at) / Fold change /veh FAM211A (11726209_a_at) / RFU RGS16 (11746705_a_at) / Fold change /veh RGS16 (11746705_a_at) / RFU VCAN (11755009_s_at) / Fold change /veh VCAN (11755009_s_at) / RFU RHOB (11743442_s_at) / Fold change /veh RHOB (11743442_s_at) / RFU RGS16 (11720943_a_at) / Fold change /veh RGS16 (11720943_a_at) / RFU RGS16 (11720944_at) / Fold change /veh RGS16 (11720944_at) / RFU, VPS4B / Fold change vs veh, VPS4B / RFU, CREB1 / Fold change vs veh, CREB1 / RFU, DNAJC13 / Fold change vs veh, DNAJC13 / RFU, GNAQ / Fold change vs veh, GNAQ / RFU, CDK5R1 / Fold change vs veh, CDK5R1 / RFU, ZRANB3 / Fold change vs veh, ZRANB3 / RFU, CUL4A / Fold change vs veh, CUL4A / RFU, CCNY / Fold change vs veh, CCNY / RFU, UFL1 / Fold change vs veh, UFL1 / RFU, COG3 / Fold change vs veh, COG3 / RFU, DIAPH2 / Fold change vs veh, DIAPH2 / RFU, SKA2 / Fold change vs veh, SKA2 / RFU, AFF3 / Fold change vs veh, AFF3 / RFU, LMF1 / Fold change vs veh, LMF1 / RFU, IPO11 / Fold change vs veh, IPO11 / RFU, DFFB / Fold change vs veh, DFFB / RFU, FOXP1 / Fold change vs veh, FOXP1 / RFU, CARD8 / Fold change vs veh, CARD8 / RFU, STRN3 / Fold change vs veh, STRN3 / RFU, ADK / Fold change vs veh, ADK / RFU, RASSF2 / Fold change vs veh, RASSF2 / RFU, WIPF1 / Fold change vs veh, WIPF1 / RFU, LARP1B / Fold change vs veh, LARP1B / RFU, RASA1 / Fold change vs veh, RASA1 / RFU, RB1 / Fold change vs veh, RB1 / RFU, PPFIA1 / Fold change vs veh, PPFIA1 / RFU, MAT2A / Fold change vs veh, MAT2A / RFU, CCT5 / Fold change vs veh, CCT5 / RFU, WDR92 / Fold change vs veh, WDR92 / RFU, CUX1 / Fold change vs veh, CUX1 / RFU, TTC7A / Fold change vs veh, TTC7A / RFU, TMEM135 / Fold change vs veh, TMEM135 / RFU, DEPTOR / Fold change vs veh, DEPTOR / RFU, CPM / Fold change vs veh, CPM / RFU, DNAJB6 / Fold change vs veh, DNAJB6 / RFU, CACNA2D3 / Fold change vs veh, CACNA2D3 / RFU, DTX4 / Fold change vs veh, DTX4 / RFU, TFCP2 / Fold change vs veh, TFCP2 / RFU, GMCL1 /// GMCL1P1 / Fold change vs veh, GMCL1 /// GMCL1P1 / RFU, AEBP2 / Fold change vs veh, AEBP2 / RFU, SNHG1 /// SNORD22 /// SNORD25 /// SNORD26 /// SNORD27 /// SNORD28 /// SNORD29 /// SNORD31 / Fold change vs veh, SNHG1 /// SNORD22 /// SNORD25 /// SNORD26 /// SNORD27 /// SNORD28 /// SNORD29 /// SNORD31 / Fold change (Aza/veh), C12orf56 (ProbeSet 11735607_a_at) / Fold change (ACY-1035/veh), C12orf56 (ProbeSet 11735607_a_at) / Fold change (Aza/veh), FGFR1OP (ProbeSet 11751329_s_at) / Fold change (ACY-1035/veh), FGFR1OP (ProbeSet 11751329_s_at) / Fold change (Aza/veh), VPS36 (ProbeSet 11739960_a_at) / Fold change (ACY-1035/veh), VPS36 (ProbeSet 11739960_a_at) / RFU SYPL1 (11715823_x_at) / Fold change /veh SYPL1 (11715823_x_at) / RFU IGFBP7 (11715501_s_at) / Fold change /veh IGFBP7 (11715501_s_at) / RFU REEP3 (11722064_at) / Fold change /veh REEP3 (11722064_at) / RFU IGLL1 (11728026_x_at) / Fold change /veh IGLL1 (11728026_x_at): dose or concentration left out as unconfirmed. Format: cell-based, human.

Regarding `Nc1ccc(-c2cccs2)cc1NC(=O)c1ccc2c(c1)cc(C1CC1)n2CCN1CCOCC1` [ACY-1035], the “RFU, BET1” value is recorded as 86.19 RFU.
